{
  "source": "patent US20260285850A1",
  "about": "“SUBSTITUTED OXAZOLIDINONES AND IMIDAZOLINONES AS HERBICIDES” (FMC CORPORATION, priority 2023, published 2026)",
  "type_in_all_cases": "in vivo",
  "key": {"[1]": {"system": "rice (Oryza sativa)", "experiment": "Test B flooded paddy test, visual plant response rating 0-100", "settings": "250 g ai/ha, Flood, applied to paddy water, evaluated after 13 days", "summary_of_the_method": "(§1)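 Plants were grown to the 2-leaf stage, then pots were flooded to 3 cm above the soil and compound was applied directly to the paddy water, with that depth kept throughout.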"}, "[2]": {"system": "sedge, umbrella (small-flower umbrella sedge, Cyperus difformis)", "experiment": "Test B flooded paddy test, visual plant response rating 0-100", "settings": "250 g ai/ha, Flood, applied to paddy water, evaluated after 13 days", "summary_of_the_method": "as §1"}, "[3]": {"system": "ducksalad (Heteranthera limosa)", "experiment": "Test B flooded paddy test, visual plant response rating 0-100", "settings": "250 g ai/ha, Flood, applied to paddy water, evaluated after 13 days", "summary_of_the_method": "as §1"}, "[4]": {"system": "barnyardgrass (Echinochloa crusgalli)", "experiment": "Test B flooded paddy test, visual plant response rating 0-100", "settings": "250 g ai/ha, Flood, applied to paddy water, evaluated after 13 days", "summary_of_the_method": "as §1"}, "[5]": {"system": "horseweed (Erigeron canadensis)", "experiment": "Test A postemergence application, visual injury rating 0-100", "settings": "10 days", "summary_of_the_method": "(§2)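 Visual injury, scored 0-100 (100 = complete control) against untreated plants, 10 days after greenhouse treatment. Test chemicals in surfactant-containing non-phytotoxic solvent were applied in loam soil and sand, as a preemergence soil spray on seeds or postemergence to plants at the one- to two-leaf stage.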"}, "[6]": {"system": "blackgrass (Alopecurus myosuroides)", "experiment": "Test A postemergence application, visual injury rating 0-100", "settings": "10 days", "summary_of_the_method": "as §2"}, "[7]": {"system": "barnyardgrass (Echinochloa crus-galli)", "experiment": "Test A postemergence application, visual injury rating 0-100", "settings": "10 days", "summary_of_the_method": "as §2"}, "[8]": {"system": "oat, wild (wild oat, Avena fatua)", "experiment": "Test A postemergence application, visual injury rating 0-100", "settings": "10 days", "summary_of_the_method": "as §2"}, "[9]": {"system": "palmer (palmer amaranth, palmer pigweed, Amaranthus palmeri)", "experiment": "Test A postemergence application, visual injury rating 0-100", "settings": "10 days", "summary_of_the_method": "as §2"}, "[10]": {"system": "ragweed (common ragweed, Ambrosia artemisiifolia)", "experiment": "Test A postemergence application, visual injury rating 0-100", "settings": "10 days", "summary_of_the_method": "as §2"}, "[11]": {"system": "wheat (Triticum aestivum)", "experiment": "Test A postemergence application, visual injury rating 0-100", "settings": "10 days", "summary_of_the_method": "as §2"}, "[12]": {"system": "green foxtail (Setaria viridis)", "experiment": "Test A postemergence application, visual injury rating 0-100", "settings": "10 days", "summary_of_the_method": "as §2"}, "[13]": {"system": "soybean (Glycine max)", "experiment": "Test A postemergence application, visual injury rating 0-100", "settings": "10 days", "summary_of_the_method": "as §2"}, "[14]": {"system": "ryegrass, Italian (italian ryegrass, Lolium multiflorum)", "experiment": "Test A postemergence application, visual injury rating 0-100", "settings": "10 days", "summary_of_the_method": "as §2"}, "[15]": {"system": "corn (Zea mays)", "experiment": "Test A postemergence application, visual injury rating 0-100", "settings": "10 days", "summary_of_the_method": "as §2"}, "[16]": {"system": "kochia (Bassia scoparia)", "experiment": "Test A postemergence application, visual injury rating 0-100", "settings": "10 days", "summary_of_the_method": "as §2"}, "[17]": {"system": "blackgrass (Alopecurus myosuroides)", "experiment": "Test A preemergence soil spray, visual injury rating 0-100", "settings": "10 days, 0 = no effect, 100 = complete control", "summary_of_the_method": "as §2"}, "[18]": {"system": "barnyardgrass (Echinochloa crus-galli)", "experiment": "Test A preemergence soil spray, visual injury rating 0-100", "settings": "10 days, 0 = no effect, 100 = complete control", "summary_of_the_method": "as §2"}, "[19]": {"system": "oat, wild (wild oat, Avena fatua)", "experiment": "Test A preemergence soil spray, visual injury rating 0-100", "settings": "10 days, 0 = no effect, 100 = complete control", "summary_of_the_method": "as §2"}, "[20]": {"system": "palmer (palmer amaranth, palmer pigweed, Amaranthus palmeri)", "experiment": "Test A preemergence soil spray, visual injury rating 0-100", "settings": "10 days, 0 = no effect, 100 = complete control", "summary_of_the_method": "as §2"}, "[21]": {"system": "ragweed (common ragweed, Ambrosia artemisiifolia)", "experiment": "Test A preemergence soil spray, visual injury rating 0-100", "settings": "10 days, 0 = no effect, 100 = complete control", "summary_of_the_method": "as §2"}, "[22]": {"system": "wheat (Triticum aestivum)", "experiment": "Test A preemergence soil spray, visual injury rating 0-100", "settings": "10 days, 0 = no effect, 100 = complete control", "summary_of_the_method": "as §2"}, "[23]": {"system": "green foxtail (Setaria viridis)", "experiment": "Test A preemergence soil spray, visual injury rating 0-100", "settings": "10 days, 0 = no effect, 100 = complete control", "summary_of_the_method": "as §2"}, "[24]": {"system": "soybean (Glycine max)", "experiment": "Test A preemergence soil spray, visual injury rating 0-100", "settings": "10 days, 0 = no effect, 100 = complete control", "summary_of_the_method": "as §2"}, "[25]": {"system": "ryegrass, Italian (italian ryegrass, Lolium multiflorum)", "experiment": "Test A preemergence soil spray, visual injury rating 0-100", "settings": "10 days, 0 = no effect, 100 = complete control", "summary_of_the_method": "as §2"}, "[26]": {"system": "corn (Zea mays)", "experiment": "Test A preemergence soil spray, visual injury rating 0-100", "settings": "10 days, 0 = no effect, 100 = complete control", "summary_of_the_method": "as §2"}, "[27]": {"system": "kochia (Bassia scoparia)", "experiment": "Test A preemergence soil spray, visual injury rating 0-100", "settings": "10 days, 0 = no effect, 100 = complete control", "summary_of_the_method": "as §2"}, "[28]": {"settings": "31 g ai/ha, postemergence, 0 = no effect, 100 = complete control"}, "[29]": {"settings": "Postemergence, 125 g ai/ha, 0 is no effect, 100 is complete control"}},
  "data": [
    {"smiles": "CC1(C(=O)NC2CC=C(C(=O)O)C2)CN(c2cc(F)cc(F)c2)C(=O)O1", "note": "[Compound 38, (4S)-4-[[[3-(3,5-difluorophenyl)-5-methyl-2-oxo-5-oxazolidinyl]carbonyl]amino]-1-cyclopentene-1-carboxylate acid]", "values": [
      {"measurement": "Plant response rating, Rice (0 to 100 scale, 0 is no effect and 100 is complete control)", "setting": "[1]", "value": 70},
      {"measurement": "Plant response rating, Sedge, Umbrella (0 to 100 scale, 0 is no effect and 100 is complete control)", "setting": "[2]", "value": 95},
      {"measurement": "Plant response rating, Ducksalad (0 to 100 scale, 0 is no effect and 100 is complete control)", "setting": "[3]", "value": 55},
      {"measurement": "Plant response rating, Barnyardgrass (0 to 100 scale, 0 is no effect and 100 is complete control)", "setting": "[4]", "value": 55},
      {"measurement": "Horseweed plant response rating (0-100)", "setting": "[5]; [28]", "value": 30},
      {"measurement": "Horseweed plant response rating (0 to 100 scale)", "setting": "[5]; [29]", "value": 70},
      {"measurement": "Blackgrass plant response rating (0-100)", "setting": "[6]; [28]", "value": 40},
      {"measurement": "Blackgrass plant response rating (0 to 100 scale)", "setting": "[6]; [29]", "value": 90},
      {"measurement": "Barnyardgrass plant response rating (0-100)", "setting": "[7]; [28]", "value": 90},
      {"measurement": "Barnyardgrass plant response rating (0 to 100 scale)", "setting": "[7]; [29]", "value": 100},
      {"measurement": "Oat, Wild plant response rating (0-100)", "setting": "[8]; [28]", "value": 90},
      {"measurement": "Oat, Wild plant response rating (0 to 100 scale)", "setting": "[8]; [29]", "value": 90},
      {"measurement": "Amaranth, Palmer plant response rating (0-100)", "setting": "[9]; [28]", "value": 40},
      {"measurement": "Amaranth, Palmer / Pigweed, Palmer plant response rating (0 to 100 scale)", "setting": "[9]; [29]", "value": 100},
      {"measurement": "Ragweed plant response rating (0-100)", "setting": "[10]; [28]", "value": 20},
      {"measurement": "Ragweed plant response rating (0 to 100 scale)", "setting": "[10]; [29]", "value": 50},
      {"measurement": "Wheat plant response rating (0-100)", "setting": "[11]; [28]", "value": 90},
      {"measurement": "Wheat plant response rating (0 to 100 scale)", "setting": "[11]; [29]", "value": 90},
      {"measurement": "Foxtail, Green plant response rating (0-100)", "setting": "[12]; [28]", "value": 90},
      {"measurement": "Foxtail, Green plant response rating (0 to 100 scale)", "setting": "[12]; [29]", "value": 90},
      {"measurement": "Soybean plant response rating (0-100)", "setting": "[13]; [28]", "value": 60},
      {"measurement": "Soybean plant response rating (0 to 100 scale)", "setting": "[13]; [29]", "value": 80},
      {"measurement": "Ryegrass, Italian plant response rating (0-100)", "setting": "[14]; [28]", "value": 70},
      {"measurement": "Ryegrass, Italian plant response rating (0 to 100 scale)", "setting": "[14]; [29]", "value": 90},
      {"measurement": "Corn plant response rating (0-100)", "setting": "[15]; [28]", "value": 90},
      {"measurement": "Corn plant response rating (0 to 100 scale)", "setting": "[15]; [29]", "value": 100},
      {"measurement": "Kochia plant response rating (0-100)", "setting": "[16]; [28]", "value": 80},
      {"measurement": "Kochia plant response rating (0 to 100 scale)", "setting": "[16]; [29]", "value": 80},
      {"measurement": "Blackgrass plant response rating (0-100)", "setting": "[17]; 31 g ai/ha", "value": 0},
      {"measurement": "Blackgrass plant response rating (0 to 100 scale)", "setting": "[17]; 125 g ai/ha", "value": 50},
      {"measurement": "Barnyardgrass plant response rating (0-100)", "setting": "[18]; 31 g ai/ha", "value": 0},
      {"measurement": "Barnyardgrass plant response rating (0 to 100 scale)", "setting": "[18]; 125 g ai/ha", "value": 40},
      {"measurement": "Oat, Wild plant response rating (0-100)", "setting": "[19]; 31 g ai/ha", "value": 0},
      {"measurement": "Oat, Wild plant response rating (0 to 100 scale)", "setting": "[19]; 125 g ai/ha", "value": 60},
      {"measurement": "Amaranth, Palmer plant response rating (0-100)", "setting": "[20]; 31 g ai/ha", "value": 0},
      {"measurement": "Amaranth, Palmer plant response rating (0 to 100 scale)", "setting": "[20]; 125 g ai/ha", "value": 70},
      {"measurement": "Ragweed plant response rating (0-100)", "setting": "[21]; 31 g ai/ha", "value": 0},
      {"measurement": "Ragweed plant response rating (0 to 100 scale)", "setting": "[21]; 125 g ai/ha", "value": 0},
      {"measurement": "Wheat plant response rating (0-100)", "setting": "[22]; 31 g ai/ha", "value": 40},
      {"measurement": "Wheat plant response rating (0 to 100 scale)", "setting": "[22]; 125 g ai/ha", "value": 90},
      {"measurement": "Foxtail, Green plant response rating (0-100)", "setting": "[23]; 31 g ai/ha", "value": 0},
      {"measurement": "Foxtail, Green plant response rating (0 to 100 scale)", "setting": "[23]; 125 g ai/ha", "value": 20},
      {"measurement": "Soybean plant response rating (0-100)", "setting": "[24]; 31 g ai/ha", "value": 10},
      {"measurement": "Soybean plant response rating (0 to 100 scale)", "setting": "[24]; 125 g ai/ha", "value": 80},
      {"measurement": "Ryegrass, Italian plant response rating (0-100)", "setting": "[25]; 31 g ai/ha", "value": 0},
      {"measurement": "Ryegrass, Italian plant response rating (0 to 100 scale)", "setting": "[25]; 125 g ai/ha", "value": 90},
      {"measurement": "Corn plant response rating (0-100)", "setting": "[26]; 31 g ai/ha", "value": 0},
      {"measurement": "Corn plant response rating (0 to 100 scale)", "setting": "[26]; 125 g ai/ha", "value": 90},
      {"measurement": "Kochia plant response rating (0-100)", "setting": "[27]; 31 g ai/ha", "value": 0},
      {"measurement": "Kochia plant response rating (0 to 100 scale)", "setting": "[27]; 125 g ai/ha", "value": 20}
    ]}
  ]
}
